Molecules are shown by their SMILES.

This assay relates to Plasmodium falciparum. As to the kind of experiment: GSK_TCMDC: Inhibition of Plasmodium falciparum 3D7 in whole erythrocytes, using parasite LDH activity as an index of growth. The class given is functional, organism-based. Conditions: Plasmodium falciparum, 3D7.
For `COc1ccc2c(c1)[nH]c1c(/C=C/c3ccc([N+](=O)[O-])cc3)nccc12`, the XC50 worked out at 858 nM. Compound `COc1ccccc1CNCC(O)c1cc(C(F)(F)F)ccc1C(F)(F)F` (stereo not drawn) had an XC50 of 944 nM. Take `CCN(CC)CCN(Cc1ccc(-c2ccc(C(F)(F)F)cc2)cc1)C(=O)Cn1c(CCc2cccc(F)c2F)nc(=O)c2sccc21`: the XC50 was found to be 905 nM.

`Cc1nc(N)nc(N)c1-c1ccc(Cl)cc1` displayed an XC50 of 767 nM.

`Cc1nc(N)nc(N)c1-c1ccc2ccccc2c1`: the XC50 worked out at 868 nM. With `CC(=O)Nc1ncc(C(=O)Nc2cccc(-c3ccc(-c4nc5cc(C(F)(F)F)ccc5[nH]4)s3)c2)s1` the figure was 398 nM. `CCCCN(CCCC)Cc1cc(Nc2ccnc3cc(Cl)ccc23)ccc1O`: the XC50 came out at 17.2 nM.

`Cc1cc(N)cc2nc(-c3ccc(N)cc3)[nH]c12` returned an XC50 of 892 nM. As for `COc1ccccc1CCNc1nc(C)cc(NCCC(=O)Nc2ccccc2)n1`, the XC50 was 806 nM. `CN1CCN(CCCN(Cc2csc(-c3ccc(CNCc4ccccc4)cc3)n2)S(=O)(=O)c2ccccc2)CC1` returned an XC50 of 773 nM. Take `O=C(NCc1ccccc1)c1ccc(C(=O)NCC2CNCCO2)cc1` (stereo not drawn): the XC50 was found to be 1140 nM.

For the compound `CC(Nc1ccc2c(c1)CCC2)C(=O)Nc1cc(C(F)(F)F)ccc1N1CCOCC1` (stereo not drawn), the XC50 came out at 85.3 nM. `CC(C)(CN)c1nc(-c2ccc(Cl)c(O)c2)c(-c2ccnc(N)n2)[nH]1` yielded an XC50 of 981 nM. With `Cc1cc(NC(=O)Nc2ccc(C(C)C)cc2)c2ccccc2n1` the figure was 662 nM; with `Cc1cc(NC(=O)c2ccco2)ccc1OC1CCN(Cc2ccc(F)cc2)C1` (stereo not drawn), 644 nM; with `CCCN(CC1CC1)c1ncc(-c2cccc(CNCc3ccccc3O)c2)cn1`, 700 nM. On to `Cc1ccc(O)cc1Nc1ccnc2cc(-c3ccccc3)ccc12`, for which the XC50 was determined as 1070 nM. Compound `CC(C)(C(=O)Nc1ccc(N2CCC3(CCCN(CC4CC4)C3)CC2)c(Cl)c1)c1cccc(C(F)(F)F)c1` yielded an XC50 of 2000 nM. Compound `Cc1ccc(C)c(CC(=O)N2CCC(n3c(C)nc4ccc(F)cc43)CC2)c1` came in with an XC50 of 193 nM. In turn, `CC(C)Cn1c(Sc2ccc(C#N)c([N+](=O)[O-])c2)nnc1-c1ccc(N(C)C)cc1` registered an XC50 of 220 nM. For `Cc1ccc(Cc2c[nH]c(NCCSCc3ccc(CN4CCOCC4)o3)nc2=O)cn1`, the XC50 came out at 1070 nM. `CCN1CCC(NCc2ccc(-c3ccc(Cl)cc3)cc2)CC1`: the XC50 was 1020 nM.

Regarding `COc1cccc(C=CC(=O)N(CCN)Cc2ccccc2)c1`, the XC50 worked out at 815 nM.

In turn, `COc1ccc(-c2cc3ncn(CC(=O)N4CCN(c5cccc(OC)c5)CC4)c(=O)c3s2)cc1` yielded an XC50 of 1060 nM. `O=C(NCCc1ccc(Cl)c(Cl)c1)c1ccc(CNC(=O)c2ccc(O)c(-c3ccc(Cl)c(Cl)c3)c2)cc1` gave an XC50 of 812 nM.

In turn, `O=C(NCCNc1ccnc2cc(Cl)ccc12)c1ccccc1F` showed an XC50 of 655 nM.

The compound `NC(=O)c1cc2nc(NC3CCC3)nc(Nc3cccc4[nH]ncc34)c2[nH]1` returned an XC50 of 732 nM. As to `CC(CN(C)C)C(=O)Nc1cccc(-c2ccc(-c3nc4ccccc4[nH]3)cc2)c1` (stereo not drawn), the XC50 was found to be 706 nM. The value for `CCOc1ccccc1CCNCC1CCN(CC2CCCCC2)CC1` was 783 nM; that for `COc1ccc(CNC(=O)NC2CCN(c3ccnc(Nc4ccc(OC)cc4)n3)C2)cc1` (stereo not drawn) was 1000 nM. With `NC1=NC(CCc2ccccc2)N(c2ccccc2)C(N)=N1` (stereo not drawn) the figure was 77.1 nM; with `O=C(/C=C/c1ccc(Cl)c(Cl)c1)NCCCCCN1CC[C@H](NC(=O)c2ccc3c(c2)OCO3)C1`, 942 nM. With `Cc1cccc2nc(-c3ccc(-c4cccc(CNCCCN5CCCC5=O)c4)s3)[nH]c12` the figure was 590 nM; with `CC(C)(C)OC(=O)N1CCC(C2CCN(C(=O)OC(C)(C)C)CC2)CC1`, 1160 nM. `O=C(Nc1ccc(-c2ccc(-c3nc4cc(C(F)(F)F)ccc4[nH]3)s2)cc1)c1c[nH]cn1`: the XC50 was 670 nM. `Cc1ccc(-c2noc(=O)n2CC(=O)Nc2ccccc2-c2ccccc2)cc1` registered an XC50 of 807 nM.

Turning to `COc1ccc2nccc([C@@H](O)CN3CCC(NCc4cc5ccccc5nc4O)CC3)c2c1`, the XC50 came to 182 nM. Compound `COc1ccccc1C1CCN(C2CCC(NC(=O)/C=C/c3cc(F)c(F)cc3F)CC2)CC1` (stereo not drawn) gave an XC50 of 1600 nM. In the case of `O=C(NCCSCc1c(F)cccc1Cl)c1cnc2c(c1)nc(-c1c[nH]c(-c3ccccc3)n1)n2CCc1c[nH]cn1`, the XC50 was found to be 807 nM. Compound `Cc1ccc(CN2CCCN(Cc3cccc(NC(=O)c4ccc(-c5ccccc5)cc4)c3)CC2)cc1C` returned an XC50 of 1250 nM. The value for `Cc1noc(C)c1-c1ccc2c(Nc3ccccc3C(C)(C)C)c(C(=O)NCc3ccccc3)cnc2c1` was 762 nM. As for `CC(C)NCc1cccc(-c2ccc(NC(=O)c3ccc(C#N)cc3)cc2)c1`, the XC50 was 825 nM. Compound `O=C(NCCNc1ccnc(Nc2ccc(F)cc2)n1)Nc1ccc2c(c1)OCO2` had an XC50 of 682 nM. For `CCOC(=O)NC1=NC(C)(C)N(OCc2ccc(Cl)c(Cl)c2)C(NC(=O)OCC)=N1`, the XC50 came to 278 nM. Turning to `CCCc1ccc(NC(=O)c2cccc(CN3CCCN(Cc4cccc(C#N)c4)CC3)c2)cc1`, the XC50 was 976 nM. As to `O=C(NC1CCN(Cc2ccccc2)C1)c1ccc(Nc2ccc(Br)cc2)nc1` (stereo not drawn), the XC50 turned out to be 1080 nM. With `COC(=O)/C=C/C(=O)N[C@@H]1CC[C@@]2(O)[C@H]3Cc4ccc(O)c5c4[C@@]2(CCN3CC2CC2)[C@H]1O5` the figure was 639 nM; with `CNc1ccc(CNCc2ccc(-c3ccc(-c4nc5cc(C(F)(F)F)ccc5[nH]4)cc3)cc2)cc1`, 167 nM. With `CNC(=O)c1cnc(Nc2ccc(OCC(O)CN(C)C)cc2)nc1Nc1cccc(OC(C)C)c1` (stereo not drawn) the figure was 137 nM. With `COc1ccc(C(=O)N2CCN(c3ccc([N+](=O)[O-])c(NC4CC4)c3)CC2)cc1Br` the figure was 797 nM; with `COc1ccc2ncc(Cl)c(CCN3CCC(NCc4ccc5c(n4)NC(=O)CS5)CC3)c2c1`, 590 nM; with `CC(Oc1cc(-n2cnc3ccc(NC(=O)CCN4CCCCC4)cc32)sc1C(N)=O)c1ccccc1Cl` (stereo not drawn), 400 nM. The compound `COc1ccc(CCn2c(=N)c(C(=O)NC3CCCC3)cc3c(=O)n4ccccc4nc32)cc1` yielded an XC50 of 678 nM. With `COc1ccc(CN2CCCC(Nc3ccc(F)c(F)c3)C2)c(O)c1` (stereo not drawn), the XC50 was found to be 1090 nM. Take `O=C(N[C@H]1CCN(Cc2ccc(OC3CCN(Cc4ccccc4)CC3)c(Cl)c2)C1)c1ccc(Cl)c(Cl)c1`: the XC50 turned out to be 814 nM. With `CCCCCCCN(Cc1ccc(OC(C)(C)C(=O)OCC)cc1)C(=O)Nc1ccccc1OC(F)(F)F` the figure was 966 nM. With `CCC1CN2CCc3c([nH]c4ccccc34)C2CC1CC1=NCCc2c1[nH]c1ccc(OC)cc21` (stereo not drawn) the figure was 641 nM; with `C=CCn1cc(C2CCN(CCCCNC(=O)c3sc(-c4ccc(C(F)(F)F)cc4)nc3CO)CC2)c2cc(OC)ccc21`, 1040 nM; with `Cc1cccc(C(=O)Nc2ccnc(N(C)CCCN(C)Cc3cccc(O)c3)c2)c1`, 967 nM. The compound `CN1CCN(c2ccnc3ccc(NC(=O)Nc4ccc(-c5ccccc5)cc4)cc23)CC1` gave an XC50 of 776 nM. For the compound `C=C[C@H]1CN(CCCCCCC)CC[C@H]1C[C@@H](Cc1ccnc2ccc(OC)cc12)OC(=O)[C@](OC)(c1ccccc1)C(F)(F)F`, the XC50 stood at 876 nM. In the case of `COc1ccc(-c2nc(NC(=O)COc3ccc(C(C)=O)cc3)sc2C)cc1`, the XC50 came out at 713 nM. Compound `COC(=O)c1ccc(CC(C)NCC(O)c2cccc(Br)c2)cc1` (stereo not drawn) showed an XC50 of 694 nM. For `CCN(CC)CCCn1c(N)c(-c2nc3ccccc3[nH]2)c2nc(C#N)c(C#N)nc21`, the XC50 worked out at 267 nM. The value for `Cc1cccc(C(=O)NC(NC(=S)Nc2ccc([N+](=O)[O-])cc2)C(Cl)(Cl)Cl)c1` (stereo not drawn) was 744 nM; that for `Cc1cc(NC2CCN(CC3CCCCC3)CC2)nc(Nc2ccccc2Cl)n1` was 642 nM. The compound `Cc1cccc2nc(-c3ccc(-c4cccc(CNC5CCN(C)CC5)c4)s3)[nH]c12` showed an XC50 of 182 nM. With `CC(C)(CNC(=O)[C@@H]1CCCN(CCOc2ccc(F)c(F)c2)C1)c1nc(-c2ccc(Cl)c(O)c2)c(-c2ccncc2)[nH]1` the figure was 722 nM. With `COc1cccc(CN2CCC(CCOC(c3ccccc3)c3ccc(Cl)cc3)CC2)c1O` (stereo not drawn) the figure was 713 nM; with `Cc1cccc2nc(-c3cccc(-c4cccc(CNCCCN5CCCC5=O)c4)c3)[nH]c12`, 743 nM; with `Cc1cc(N2CCCN(C)CC2)nc(Nc2ccc(Br)cc2)n1`, 723 nM. As to `Cc1cc(N(C)C)nc(Nc2ccc(NS(=O)(=O)c3ccccc3)cc2)n1`, the XC50 was 1350 nM. Take `CCN(CC)CCCC(C)Nc1ccnc2ccc(OC)cc12` (stereo not drawn): the XC50 was determined as 822 nM.

`CCOC(=O)c1cccc(NC(=O)Nc2cc(C)nc3ccccc23)c1` displayed an XC50 of 286 nM. The compound `CN1CCc2ccc(NC(=O)Nc3ccc(Cl)c(Cl)c3)cc2C1` registered an XC50 of 724 nM. As to `CS(=O)(=O)NCCCNCc1ccc(-c2ccc(-c3nc4cc(C(F)(F)F)ccc4[nH]3)s2)cc1`, the XC50 turned out to be 515 nM. As for `Fc1ccccc1-c1cc(Nc2ccncc2)nc(-c2cccnc2)n1`, the XC50 came out at 258 nM.

As to `Oc1cc(Nc2ccnc3cc(-c4cccc(CN5CCCCC5)c4)ccc23)c(F)cc1Cl`, the XC50 came to 102 nM. With `CCn1c(Sc2ccc(C#N)c([N+](=O)[O-])c2)nnc1-c1cc(OC)cc(OC)c1` the figure was 565 nM.

The compound `CCN(CCCN1CCCCC1)c1nccc(Nc2ccc(Cl)cc2)n1` came in with an XC50 of 1190 nM. `Cc1onc(-c2c(F)cccc2Cl)c1C(=O)Nc1ccccc1I` returned an XC50 of 952 nM. The value for `COc1cc(Cc2cnc(N)nc2N)ccc1OCc1ccc(-c2ccccc2C#N)cc1` was 940 nM; that for `O=C(Nc1ccc(OC2CCN(Cc3ccc(F)cc3)CC2)c(Cl)c1)c1ccco1` was 303 nM. For `O=C(N[C@@H](Cc1ccccc1)C(=O)NC1CCCCCC1)c1ccc(O)c(-c2cccc(C(F)(F)F)c2)c1`, the XC50 stood at 735 nM. On to `COCCNCc1cccc(-c2ccc3c(Nc4ccc(Oc5cccnc5)cc4)ccnc3c2)c1`, for which the XC50 is 178 nM. With `CC(CN)OCn1cnc2c(N)ncnc21` (stereo not drawn) the figure was 231 nM; with `N#Cc1ccc(-c2ccc(C(=O)NCCCCN3CC=C(c4ccc5c(c4OCC4CC4)CCCC5)CC3)cc2)cc1`, 623 nM; with `COc1ccc(OCC(O)CN(Cc2ccccc2OC)C(=O)Nc2ccc(Br)cc2)cc1` (stereo not drawn), 748 nM.

Source of the values: ChEMBL document CHEMBL1157539, “Thousands of chemical starting points for antimalarial lead identification” (Nature, 2010).
